Among the data in patent US12152038B2, “Vasopressin receptor antagonists and products and methods related thereto” (Neumora Therapeutics, Inc., priority 2017, dated 2024) are IC50 values, retold here.

T1 sequence (P37288 whole entry): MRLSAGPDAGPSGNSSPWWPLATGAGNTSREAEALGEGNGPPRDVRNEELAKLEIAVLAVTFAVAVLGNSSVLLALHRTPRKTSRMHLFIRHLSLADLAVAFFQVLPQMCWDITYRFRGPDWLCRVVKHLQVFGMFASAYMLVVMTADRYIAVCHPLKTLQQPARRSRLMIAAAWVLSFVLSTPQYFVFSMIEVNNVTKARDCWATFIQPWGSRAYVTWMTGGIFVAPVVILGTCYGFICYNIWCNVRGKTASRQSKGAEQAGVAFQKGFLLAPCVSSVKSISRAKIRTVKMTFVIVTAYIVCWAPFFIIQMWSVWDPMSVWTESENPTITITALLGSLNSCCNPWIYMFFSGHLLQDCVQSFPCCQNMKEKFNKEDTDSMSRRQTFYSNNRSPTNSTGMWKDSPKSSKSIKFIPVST

This assay addresses T1, human Arginine Vasopressin Receptor 1a (AVPR1a) (Homo sapiens, UniProt P37288).
T1 construct: expressed in transfected cells; host or cells: CHO (CHO-AVPR1a, kept under G418 selection)
Briefly: Vasopressin V1a receptor antagonist assay (FLIPR calcium, CHO-AVPR1a cells). In kind it is cell-based. A digest of the protocol:
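CHO cells expressing human AVPR1a were loaded with Calcium-6 dye and preincubated with compound for 15 min at 37° C. Cells were then challenged with AVP at its daily-determined EC80, and FLIPR fluorescence was read. Compounds were tested in duplicate as 10-point 1:3 dilutions from a top final concentration of 3 μM.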
For orientation: IC50 means the point on the concentration scale where inhibition reaches its midpoint. For `CC1COc2cc(Cl)ccc2N1C(=O)N1CC2(C1)CN(c1cccnn1)C2` (single isomer, unassigned) [9-1-A], the IC50 was at least 1000 nM. The same measure for `CC1CN(C(=O)N2CC3(C2)CN(c2ccc(F)cn2)C3)c2ccc(Cl)cc2O1` (single isomer, unassigned) [9-3-A]: under 100 nM; for `CC1CN(C(=O)N2CC3(C2)CN(c2ccc(F)cn2)C3)c2ccc(F)cc2O1` (single isomer, unassigned) [9-4-B]: under 100 nM; for `CC1COc2cc(F)ccc2N1C(=O)N1CC2(C1)CN(c1ccc(F)cn1)C2` (single isomer, unassigned) [12-1-B]: under 100 nM. The same measure for `O=C(N1CC2(C1)CN(c1ccccn1)C2)N1CCC(O)c2cc(Cl)ccc21` (single isomer, unassigned) [13-2-A]: under 100 nM; for `O=C(N1CC2(C1)CN(c1cnccn1)C2)N1CCC(O)c2cc(Cl)ccc21` (single isomer, unassigned) [13-3-A]: under 100 nM. To `CC1COc2cc(F)ccc2N1C(=O)N1CC2(C1)CN(c1ncc(F)cn1)C2` (single isomer, unassigned) [18-4-B] belongs under 100 nM; to `CC1COc2cc(F)c(F)cc2N1C(=O)N1CC2(C1)CN(c1cccnn1)C2` (single isomer, unassigned) [19-3-B], under 100 nM.

Take `CC1COc2cc(F)c(F)cc2N1C(=O)N1CC2(C1)CN(c1ccc(F)cn1)C2` (single isomer, unassigned) [19-5-B]: the IC50 is under 100 nM. As to `CC1COc2cc(Cl)ccc2N1C(=O)N1CC2(C1)CN(c1cccnc1)C2` (single isomer, unassigned) [20-1-B], the IC50 was under 100 nM. In the case of `Cc1cncc(N2CC3(CN(C(=O)N4c5ccc(F)cc5OCC4C)C3)C2)n1` (single isomer, unassigned) [20-2-B], the IC50 was under 100 nM. As to `Cc1cnc(N2CC3(CN(C(=O)N4c5ccc(Cl)cc5OCC4C)C3)C2)cn1` (single isomer, unassigned) [20-5-B], the IC50 was under 100 nM. To `CC1COc2cc(Cl)ccc2N1C(=O)N1CC2(C1)CN(c1cc(C#N)ccn1)C2` (single isomer, unassigned) [20-6-B] belongs under 100 nM; to `Cc1nc(N2CC3(CN(C(=O)N4c5ccc(Cl)cc5OCC4C)C3)C2)ncc1F` (single isomer, unassigned) [20-7-B], under 100 nM. The same measure for `O=C(N1CC2(C1)CN(c1ncccn1)C2)N1CCOc2cc(Cl)ccc21` [1-4]: under 100 nM; for `Cc1cccnc1N1CC2(CN(C(=O)N3CCOc4cc(Cl)ccc43)C2)C1` [1-5]: under 100 nM; for `Cc1ccnc(N2CC3(CN(C(=O)N4CCOc5cc(Cl)ccc54)C3)C2)c1` [1-14]: under 100 nM.

Consider `COc1ccnc(N2CC3(CN(C(=O)N4CCOc5cc(Cl)ccc54)C3)C2)c1` [1-15], for which the IC50 is under 100 nM. The same measure for `O=C(N1CC2(C1)CN(c1ncccc1F)C2)N1CCc2cc(Cl)ccc21` [1-76]: under 100 nM. As to `O=C(N1CC2(C1)CN(c1ccccn1)C2)N1CCc2cc(Cl)ccc21` [1-77], the IC50 was under 100 nM.

For the molecule `O=C(N1CC2(C1)CN(c1cccc(F)n1)C2)N1CCc2cc(Cl)ccc21` [1-78], the IC50 was under 100 nM. The same measure for `O=C(N1CC2(C1)CN(c1cc(F)ccn1)C2)N1CCc2cc(Cl)ccc21` [1-79]: under 100 nM. The same measure for `O=C(N1CC2(C1)CN(c1cccnn1)C2)N1CCOc2cc(Cl)c(F)cc21` [1-81]: under 100 nM; for `O=C(N1CC2(C1)CN(c1noc3ccccc13)C2)N1CCOc2cc(Cl)ccc21` [4-1, (6-(benzo[d]isoxazol-3-yl)-2,6-diazaspiro[3.3]heptan-2-yl)(7-chloro-2,3-dihydro-4H-benzo[b][1,4]oxazin-4-yl)methanone]: under 100 nM.

Consider `O=C(N1CC2(C1)CN(c1ncc(F)cn1)C2)N1CCOc2cc(Cl)ccc21` [4-2], for which the IC50 is under 100 nM.

For `Cc1nc(N2CC3(CN(C(=O)N4CCOc5cc(Cl)ccc54)C3)C2)ncc1F` [6-1, (7-chloro-2,3-dihydro-4H-benzo[b][1,4]oxazin-4-yl)(6-(5-fluoro-4-methylpyrimidin-2-yl)-2,6-diazaspiro[3.3]heptan-2-yl)methanone], the IC50 was under 100 nM. The same measure for `O=C(N1CC2(C1)CN(c1cnccn1)C2)N1CCOCc2cc(Cl)ccc21` [8-13]: under 100 nM; for `CC1Cc2cc(Cl)ccc2N1C(=O)N1CC2(C1)CN(c1ccc(F)cn1)C2` (stereo not shown) [8-16]: under 100 nM; for `CC1COc2cc(Cl)ccc2N1C(=O)N1CC2(C1)CN(c1cccnn1)C2` (stereo not shown) [9-1, (7-chloro-3-methyl-2,3-dihydro-4H-benzo[b][1,4]oxazin-4-yl)(6-(pyridazin-3-yl)-2,6-diazaspiro[3.3]heptan-2-yl)methanone]: under 100 nM. Regarding `COc1ccc2c(c1)OCCN2C(=O)N1CC2(C1)CN(c1ccc(F)cn1)C2` [9-2], the IC50 is under 100 nM. As to `CC1CN(C(=O)N2CC3(C2)CN(c2ccc(F)cn2)C3)c2ccc(Cl)cc2O1` (stereo not shown) [9-3], the IC50 was under 100 nM. To `O=C(N1CC2(C1)CN(c1ccc(F)cn1)C2)N1CCOc2cc(F)c(F)cc21` [9-6] belongs under 100 nM. The same measure for `CCC1COc2cc(Cl)ccc2N1C(=O)N1CC2(C1)CN(c1ccccn1)C2` (stereo not shown) [11-1, (7-chloro-3-ethyl-2,3-dihydro-4H-benzo[b][1,4]oxazin-4-yl)(6-(pyridin-2-yl)-2,6-diazaspiro[3.3]heptan-2-yl)methanone]: under 100 nM. To `CC1COc2cc(F)ccc2N1C(=O)N1CC2(C1)CN(c1ccc(F)cn1)C2` (stereo not shown) [12-1, (7-fluoro-3-methyl-2,3-dihydro-4H-benzo[b][1,4]oxazin-4-yl)(6-(5-fluoropyridin-2-yl)-2,6-diazaspiro[3.3]heptan-2-yl)methanone] belongs under 100 nM. For `O=C(N1CC2(C1)CN(c1cnccn1)C2)N1CCC(O)c2cc(Cl)ccc21` (stereo not shown) [13-3], the IC50 was under 100 nM. Consider `O=C(N1CC2(C1)CN(c1ccc(F)cn1)C2)N1CCC(F)c2cc(Cl)ccc21` (stereo not shown) [14-1, (6-chloro-4-fluoro-3,4-dihydroquinolin-1(2H)-yl)(6-(5-fluoropyridin-2-yl)-2,6-diazaspiro[3.3]heptan-2-yl)methanone], for which the IC50 was under 100 nM. To `CC1COc2cc(F)ccc2N1C(=O)N1CC2(C1)CN(c1ncccn1)C2` (stereo not shown) [18-1, (7-fluoro-3-methyl-2,3-dihydro-4H-benzo[b][1,4]oxazin-4-yl)(6-(pyrimidin-2-yl)-2,6-diazaspiro[3.3]heptan-2-yl)methanone] belongs under 100 nM; to `CC1COc2cc(F)c(F)cc2N1C(=O)N1CC2(C1)CN(c1ncccn1)C2` (stereo not shown) [19-1, (6,7-difluoro-3-methyl-2,3-dihydro-4H-benzo[b][1,4]oxazin-4-yl)(6-(pyrimidin-2-yl)-2,6-diazaspiro[3.3]heptan-2-yl)methanone], under 100 nM; to `CC1COc2cc(Cl)c(F)cc2N1C(=O)N1CC2(C1)CN(c1ncccn1)C2` (stereo not shown) [19-2], under 100 nM.

As to `CC1COc2cc(F)c(F)cc2N1C(=O)N1CC2(C1)CN(c1cccnn1)C2` (stereo not shown) [19-3], the 50% inhibitory concentration (IC50) is under 100 nM. To `CC1COc2cc(Cl)c(F)cc2N1C(=O)N1CC2(C1)CN(c1cccnc1)C2` (stereo not shown) [19-6] belongs under 100 nM.

In the case of `CC1COc2cc(Cl)ccc2N1C(=O)N1CC2(C1)CN(c1cccnc1)C2` (stereo not shown) [20-1, (7-chloro-3-methyl-2,3-dihydro-4H-benzo[b][1,4]oxazin-4-yl)(6-(pyridin-3-yl)-2,6-diazaspiro[3.3]heptan-2-yl)methanone], the IC50 is under 100 nM. The same measure for `CC1COc2cc(Cl)ccc2N1C(=O)N1CC2(C1)CN(c1cc(C#N)ccn1)C2` (stereo not shown) [20-6]: under 100 nM; for `Cc1nc(N2CC3(CN(C(=O)N4c5ccc(Cl)cc5OCC4C)C3)C2)ncc1F` (stereo not shown) [20-7]: under 100 nM. The same measure for `Cc1ccnc(N2CC3(CN(C(=O)N4c5ccc(Cl)cc5OCC4C)C3)C2)n1` (stereo not shown) [20-12]: under 100 nM; for `Cc1cnc(N2CC3(CN(C(=O)N4c5ccc(Cl)cc5OCC4C)C3)C2)nc1` (stereo not shown) [20-13]: under 100 nM.
